Data reported in patent US20170224692A1, “Combination Therapy” (Novartis AG, priority 2014, published 2017).
Where “and” joins values, the source holds several entries; their conditions need not be identical. Equal values may be shown once.

Assays:
Type in all cases: cell-based
[1] = test system: YD-38 cells; assay: 3 day CellTiter-Glo cell proliferation assay / dose matrix combination, YD-38
Protocol: (§1) YD-38, CAL-33 and CCK-81 cells were cultured at 37° C. in a 5% CO2 incubator using the ATCC media (YD-38, RPMI-1640; CAL-33, DMEM; CCK-81, EMEM) supplemented with 10% FBS (Thermo scientific, SH30071.03). […] L-glutamine (Invitrogen, #25030-081) was also supplemented for CAL-33 media. Cells were passaged twice a week using TryPLE Express (Invitrogen, #12604-013).
(§2) Cell viability was determined by measuring cellular ATP content using the CellTiter-Glo®(CTG) luminescent cell viability assay (Promega #G7573) according to the manufacturer's protocol. Briefly, various number of cells (6000 for CAL-33, 4200 for YD-38 and 7000 for CCK-81) were seeded in 80 μl growth media per well in clear-bottom 96-well black plates (Costar, #3904) in triplicates. Cells were allowed to attach overnight prior to 72 hours of treatment with indicated compounds (serially-diluted where applicable) and/or 75 ng/ml HGF in a volume of 100 ul for HGF rescue experiment (+20 μl compound or HGF) or 140 ul for Chalice combination experiment (+20 μl compound A+20 μl compound B+20 ul media or HGF). At the end of the drug treatment, 100 ul CTG reagent was added to each well to lyse the cells, and luminescence signals were recorded in the Envision plate reader (Perkin Elmer).
(§3) In all combination assays, compounds were applied simultaneously. […] INC280 was subjected to a 7 doses 3× serial dilution with the highest dose at 1.5 μM and the lowest dose at about […]. The synergistic interaction was analyzed using Chalice software (CombinatoRx, Cambridge Mass.). Synergy was calculated by comparing a combination's response to those of its single agents, against the drug-with-itself dose-additive reference model and reported as Synergy Score (Lehar et al., 2009).
(§4) YD-38, CAL-33 and CCK-81 cells were treated in 96-well format for 3 days with HGF alone, Panitumumab alone, Panitumumab as a singal agent and Panitumumab with INC280 in the present or absent of HGF. (FIGS. 6 and 7). Cell viability was measured using the CellTiter-Glo assay. % viability was plotted as bar graphs with mean values and standard deviations from triplicates. […] Each data point represents averaged data from 3 wells +standard deviation, and the color spectrum also represents the level of the inhibition.

[2] = test system: CCK-81 cells; assay: 3 day CellTiter-Glo cell proliferation assay / dose matrix combination, CCK-81
Protocol: as §1, §2, §3, §4

[3] = test system: YD-38, CAL-33 and CCK-81 cells; assay: 3 day CellTiter-Glo proliferation / dose matrix combination, statements over all three cell lines
Protocol: Cell viability was determined by measuring cellular ATP content using the CellTiter-Glo®(CTG) luminescent cell viability assay (Promega #G7573) according to the manufacturer's protocol. Briefly, various number of cells (6000 for CAL-33, 4200 for YD-38 and 7000 for CCK-81) were seeded in 80 μl growth media per well in clear-bottom 96-well black plates (Costar, #3904) in triplicates. […] At the end of the drug treatment, 100 ul CTG reagent was added to each well to lyse the cells, and luminescence signals were recorded in the Envision plate reader (Perkin Elmer).
In all combination assays, compounds were applied simultaneously. […] The synergistic interaction was analyzed using Chalice software (CombinatoRx, Cambridge Mass.). Synergy was calculated by comparing a combination's response to those of its single agents, against the drug-with-itself dose-additive reference model and reported as Synergy Score (Lehar et al., 2009).
YD-38, CAL-33 and CCK-81 cells were treated in 96-well format for 3 days with HGF alone, Panitumumab alone, Panitumumab as a singal agent and Panitumumab with INC280 in the present or absent of HGF. […] Cell viability was measured using the CellTiter-Glo assay. % viability was plotted as bar graphs with mean values and standard deviations from triplicates. […]

[4] = test system: CAL-33 cells; assay: 3 day CellTiter-Glo cell proliferation assay / dose matrix combination, CAL-33
Protocol: as §1, §2, §3, §4

[5] = INC280 single agent, dose matrix
[6] = co-treatment with 500 nM INC280, 100 nM Cetuximab, 75 ng/ml HGF
[7] = addition of 75 ng/ml HGF together with antibody

CNC(=O)c1ccc(-c2cnc3ncc(Cc4ccc5ncccc5c4)n3n2)cc1F [INC280, 2-fluoro-N-methyl-4-[(7-quinolin-6-yl-methyl)-imidazo[1,2-b]triazin-2-yl]benzamide]
anti-proliferation effect, single agent [1, 5]: no anti-proliferation effect | block of the HGF rescue of Cetuximab effect [1, 6]: completely blocked | INC280 concentration that re-sensitized HGF-treated cells to Cetuximab ([1]; presence of HGF, dose matrix): 18 nM | inhibition at 1.5 µM ([2]; INC280 at 1.5 μM, presence of HGF, read-out: growth inhibition, single agent): ~20% | block of the HGF rescue of Cetuximab effect [2, 6]: fully blocked | INC280 concentration that re-sensitized HGF-treated cells to Cetuximab ([2]; presence of HGF, dose matrix): 18 nM | anti-proliferation effect, single agent ([3]; INC280 single agent, regardless of HGF addition): little or no anti-proliferation effect | INC280 concentration that re-sensitized cells to Cetuximab ([3]; presence of HGF): 18 nM | anti-proliferation effect, single agent [4, 5]: no anti-proliferation effect | block of the HGF rescue of Cetuximab effect [4, 6]: completely blocked | INC280 concentration that re-sensitized HGF-treated cells to Cetuximab ([4]; presence of HGF, dose matrix): 18 nM

HGF: Recombinant HGF (R&D Systems, 294-HG-005/CF), ligand activating MET [reference compound]
growth-stimulating effect of HGF alone ([1]; 75 ng/ml HGF alone): no growth-stimulating effect | growth-stimulating effect of HGF alone ([2]; 75 ng/ml HGF alone): ~19% and ~20% | growth-promoting effect by HGF alone ([4]; 75 ng/ml HGF alone): ~16%

Panitumumab: fully human monoclonal antibody specific to the epidermal growth factor receptor [reference compound]
HGF rescue of the anti-proliferation effect of the EGFR antibody [1, 7]: rescued | HGF rescue of the anti-proliferation effect of the EGFR antibody [2, 7]: rescued | HGF rescue of the anti-proliferation effect of the EGFR antibody [4, 7]: rescued
